Assay results published in patent publication US20040180855A1, “Methods of treating thrombosis with reduced risk of increased bleeding times” (priority 2003, published 2004).

Experiments:
rat plasma [1] = test: PT clotting time, rat plasma; assay type: biochemical; settings: up to 100 μM
Protocol: (§1) The term “PT” time as used herein refers to prothrombin times which is intended to refer to the time elapsed between formation of an assay solution and detection of clot formation in the assay solution with use of a PT assay, i.e., an assay employing thromboplastin reagents that are used for evaluating blood coagulation associated with the extrinsic pathway.
(§2) PT and APTT clotting times were determined as described in Balasubramanian et al., J. Med. Chem., Vol. 36 (1993), at pp. 300-03, incorporated herein by reference. The whole blood aggregation response of rat platelets to collagen was determined using the impedance procedure for a Model 560-CA Chrono-Log aggregometer (Havertown, Pa.).

human plasma = test: PT clotting time, human plasma; assay type: biochemical; settings: highest concentration tested 100 μM
Protocol: as §1, §2

[2] = target: T1, Recombinant tissue plasminogen activator (Homo sapiens, UniProt P00750); test: Selectivity assay tissue plasminogen activator; assay type: biochemical; settings: Table 3
T1 construct: purchased Genentech

[3] = test system: panel of 40 receptors and enzymes; test: Panel of 40 receptors and enzymes (MDS Panlabs Pharmacology Services)
[4] = test system: rat plasma (ex vivo APTT); test: Ex vivo clotting time APTT; assay type: in vivo; settings: for APTT Increase (X Control): average over 15-90 min
Protocol: Ex Vivo Clotting Times Ex vivo clotting time assays were used to determine the level of anticoagulation achieved in the thrombosis and bleeding time procedures, described above. A small organic compound for inhibiting Factor XIa was administered at doses (mg/kg+mg/kg/hr) of 0.5+0.5 (n=3), 2+2 (n=4), 6+6 (n=3), 12+12 (n=3) and 24+24 (n=10). Carotid artery blood (0.6 mL drawn into 1/10 volume of 3.8% Na-citrate) was sampled before (0 min control) and at 5, 15, 30, 60 and 90 min after the start of the compound infusion. The APTT was determined in freshly prepared plasma from each sample using the standard procedure for Dade Actin FSL reagent (Baxter Healthcare Corp., Miami, Fla.). The PT was determined in some animals from the 6+6 (n=3), 12+12 (n=3) and 24+24 (n=2) dose groups using Dade Thromboplastin●C reagent.
Plasma was sampled before (0 min control) and after the infusion, at intervals of 5, 15, 30, 60 and 90 min after initiating the infusion. Average APTT increases over the 15-90 min period, an interval most applicable to thrombosis and bleeding time protocols, were calculated. Control APTT values averaged 19.9±1.3 seconds overall. The PT was unaltered as expected from in vitro results. […] The range of efficacious doses in venous and arterial thrombosis (2+2, 6+6, 12+12; mg/kg+mg/kg/hr) produced an APTT increase of about 2.8 times control.

rat plasma [5] = test: APTT clotting time, rat plasma; assay type: biochemical
Description: The term “APTT” as used herein means “activated partial thromboplastin times” which is intended to refer to the time elapsed between the formation of an assay solution and the detection of clot formation in the assay solution with use of an APTT assay, i.e., an assay employing an intrinsic pathway activator, such as micronized silica, and a phospholipid component of a thromboplastin reagent (without tissue factor protein) for evaluating coagulation associated with the intrinsic pathway.
as §2

Human TF:FVIIa = target: T2, Human TF:FVIIa (Homo sapiens, UniProt P08709); test: Selectivity assay TF:FVIIa; assay type: biochemical; settings: Table 3
T2 construct: purchased Enzyme Research Labs (FVIIa); Dade (Innovin, tissue factor)
Protocol: Human TF:FVIIa activity was measured using isolated human FVIIa (Enzyme Research Labs) in the presence of recombinant human tissue Factor (Dade Innovin) in a buffer containing 20 mM HEPES, 150 mM NaCl, 5mM CaCl2, 1 mM CHAPS and 1 mg/mL PEG 6000 (pH to 7.4).

human α-thrombin = target: T3, human α-thrombin (Homo sapiens, UniProt P00734); test: Selectivity assay thrombin; assay type: biochemical; settings: Table 3
T3 construct: Enzymatic activity of human α-thrombin (Sigma) was measured; purchased Sigma

[6] = test system: mesenteric artery bleeding time; test: Mesenteric artery bleeding time (MABT) model; assay type: in vivo; settings: rat, i.v. 12+12 and 24+24 mg/kg+mg/kg/hr, pre- vs post-treatment, FIG. 6
Protocol: Experimental Bleeding Time Two models of bleeding time were performed, namely, a renal cortex bleeding model (using template incision of the renal cortex), and a mesenteric artery bleeding model (using severance of small mesenteric arteries).
In the mesenteric artery bleeding time (MABT) model, the abdomen was opened via a midline incision and the small intestine was exteriorized. The jejunum was exposed, held in place with clamps and superfused with Ringer's solution maintained at 37° C. Small arteries that branch perpendicular to the mesenteric artery and course over the surface of the jejunum were observed through an SZH10 stereomicroscope (Olympus Corp., Lake Success, N.Y.). These vessels were punctured with a 30-gauge hypodermic needle and the time in sec from puncturing until bleeding stopped was recorded. Bleeding times were determined in 3-5 arteries before administration of test article and in 3-5 arteries 20 min after the start of test article infusion. […]
Statistical Analysis In the venous and arterial thrombosis procedures, treatment effects on thrombus weight, baseline blood flow, and average blood flow during thrombosis were determined by analysis of variance with Dunnett's test for comparison to the vehicle group. […] Treatment effects on bleeding times were determined by analysis of variance with Dunnett's test for comparison to the vehicle group. […]

human factor Xa = target: T4, human factor Xa (Homo sapiens, UniProt P00742); test: Selectivity assay factor Xa; assay type: biochemical; settings: Table 3; read-out: IC50 (μM) FXa
T4 construct: Factor IXa then converts Factor X to Factor Xa; purchased Kabi Vitrum
T4 sequence (P00742 235-488 limits assumed): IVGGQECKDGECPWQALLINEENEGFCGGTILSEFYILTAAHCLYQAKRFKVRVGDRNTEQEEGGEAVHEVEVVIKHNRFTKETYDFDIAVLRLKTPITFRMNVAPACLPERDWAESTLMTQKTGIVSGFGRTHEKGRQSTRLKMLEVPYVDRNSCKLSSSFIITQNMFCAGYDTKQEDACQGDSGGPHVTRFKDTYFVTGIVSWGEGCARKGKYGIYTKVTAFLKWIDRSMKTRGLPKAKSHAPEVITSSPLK
T4 sequence (P00742 41-179 partner limits assumed): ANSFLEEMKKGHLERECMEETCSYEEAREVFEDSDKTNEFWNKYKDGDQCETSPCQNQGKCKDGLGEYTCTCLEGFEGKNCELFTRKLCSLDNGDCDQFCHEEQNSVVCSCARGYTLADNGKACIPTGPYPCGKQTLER

T2 sequence (P08709 213-466 limits assumed): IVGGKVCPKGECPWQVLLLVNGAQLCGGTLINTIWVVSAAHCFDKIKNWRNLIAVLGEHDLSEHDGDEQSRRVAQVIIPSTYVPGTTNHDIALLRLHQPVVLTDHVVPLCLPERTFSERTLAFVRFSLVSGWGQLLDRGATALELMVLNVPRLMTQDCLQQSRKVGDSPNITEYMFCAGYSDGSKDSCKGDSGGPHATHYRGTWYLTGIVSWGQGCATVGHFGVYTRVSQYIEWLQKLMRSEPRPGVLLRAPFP
T2 sequence (P08709 61-212 partner limits assumed): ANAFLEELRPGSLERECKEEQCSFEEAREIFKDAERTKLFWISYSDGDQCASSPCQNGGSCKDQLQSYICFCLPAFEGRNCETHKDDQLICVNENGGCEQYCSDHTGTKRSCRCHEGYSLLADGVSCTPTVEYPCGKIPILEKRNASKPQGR
T2 sequence (P13726 33-295 partner): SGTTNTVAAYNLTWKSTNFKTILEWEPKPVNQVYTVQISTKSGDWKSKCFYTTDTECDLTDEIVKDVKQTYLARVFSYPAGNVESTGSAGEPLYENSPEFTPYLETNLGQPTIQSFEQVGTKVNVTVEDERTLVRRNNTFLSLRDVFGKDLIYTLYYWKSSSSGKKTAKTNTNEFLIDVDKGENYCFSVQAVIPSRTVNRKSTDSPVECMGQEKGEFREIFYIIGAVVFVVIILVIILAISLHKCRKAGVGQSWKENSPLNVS
T1 sequence (P00750 36-562): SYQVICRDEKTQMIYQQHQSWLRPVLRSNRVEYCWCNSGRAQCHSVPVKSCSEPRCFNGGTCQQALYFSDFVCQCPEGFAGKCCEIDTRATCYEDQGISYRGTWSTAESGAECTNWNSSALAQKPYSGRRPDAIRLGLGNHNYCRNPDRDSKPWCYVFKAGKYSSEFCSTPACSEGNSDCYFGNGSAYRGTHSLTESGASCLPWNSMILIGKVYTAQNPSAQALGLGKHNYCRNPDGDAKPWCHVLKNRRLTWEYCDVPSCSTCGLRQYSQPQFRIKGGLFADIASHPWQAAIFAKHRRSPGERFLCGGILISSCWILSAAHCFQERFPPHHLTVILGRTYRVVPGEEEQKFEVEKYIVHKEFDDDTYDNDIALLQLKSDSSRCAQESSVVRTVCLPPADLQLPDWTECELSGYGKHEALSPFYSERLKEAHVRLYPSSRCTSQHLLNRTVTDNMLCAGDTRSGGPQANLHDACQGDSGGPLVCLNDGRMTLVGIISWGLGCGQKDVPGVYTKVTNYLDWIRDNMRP

## CC(C)(C)NC(=O)N1CCN(C(=O)N2C(=O)[C@H](CCCNC(=N)N)[C@H]2C(=O)O)CC1 [Example 4]
Rat plasma [1]
  Clotting time PT (rat), concentration that doubles clotting time: >100 µM
Human plasma
  Clotting time PT (human), concentration that doubles clotting time: >100 µM
[2]
  IC50: > 33 µM
[3]
  inhibition or enhancement of receptor and enzyme activities: No significant inhibition or enhancement
[4]; dose 0.5 + 0.5 mg/kg + mg/kg/hr
  APTT Increase (X Control): 1.57 ± 0.22 X Control
[4]; dose 2 + 2 mg/kg + mg/kg/hr
  APTT Increase (X Control): 2.81 ± 0.21 X Control
[4]; dose 6 + 6 mg/kg + mg/kg/hr
  APTT Increase (X Control): 2.73 ± 0.19 X Control
[4]; dose 12 + 12 mg/kg + mg/kg/hr
  APTT Increase (X Control): 2.79 ± 0.26 X Control
[4]; dose 24 + 24 mg/kg + mg/kg/hr
  APTT Increase (X Control): 3.29 ± 0.85 X Control
[4]; range of efficacious doses 2+2, 6+6, 12+12 mg/kg+mg/kg/hr
  APTT increase: about 2.8 times control
Rat plasma [5]
  Clotting time APTT (rat), concentration that doubles clotting time: 2.1 µM
Human TF:FVIIa
  IC50: 0.486 µM
Human α-thrombin
  IC50: 10.5 µM
[6]
  effect on mesenteric artery bleeding times: no effect
Human factor Xa
  IC50: > 33 µM
